Assay results as given in article PMC10224544, “Synthesis, Structural Elucidation and Pharmacological Applications of Cu(II) Heteroleptic Carboxylates” (Pharmaceuticals, 2023).

Experiments:
[1] = target: acetylcholinesterase (AChE) (Electrophorus electricus, UniProt O42275); assay: biochemical; format: biochemical; details: for Inhibition of Acetylcholinesterase (%AChE Activity): n = 3
Experimental: The synthesized compounds were evaluated for acetylcholinesterase (ACh) and butyrylcholinesterase (BCh) enzyme inhibitory activities.
(§1) The enzymes acetylcholinesterase (AChE) and butyrylcholinesterase (BChE) play an important role in the transfer of signals and physiological function. They assist acetylcholine to hydrolyze and produce choline and acetyl group in synaptic region. So, they are considered as targets in the management of Alzheimer’s disease. Herein, the compounds under study were evaluated for their potential to inhibit acetylthiocholine iodide (AChI) and butyrylthiocholine iodide (BChI) enzymes.
(§2) The well-known Ellman’s assay was implemented to evaluate the inhibitory potential using acetylthiocholine iodide (AChI) and butyrylthiocholine iodide (BChI) as substrates, respectively. The basic principle of the assay is the hydrolysis of acetylthiocholine iodide and butyrylthiocholine iodide by their corresponding enzymes, resulting in the formation of 5-thio-2-nitrobenzoate anion.
(§3) To carry out the assay, 0.1 M buffer solution with pH 8 was prepared as per the cited literature where the pH was adjusted using KOH (potassium hydroxide). Using the freshly prepared buffer and following the dilution, final concentrations of 0.03 U/mL for AChE (518 U/mg solid) and 0.01 U/mL for BChE (7–16 U/mg) were obtained. […] After that, the final solution of each of the AChE and BChE was prepared in distilled water in the presence of […] DTNB and were stored at 8 °C. The experiment was performed by taking 205 µL of inhibitor (tested compound) along with 5 µL of prepared solutions of enzymes, followed by the addition of 5 μL DTNB reagent. They were then incubated for about 15 min in a water bath at a temperature of 30 °C. Later on, 5 µL substrate solution was added to them which were subjected to absorption check at 412 nm. […] The temperature of the spectrophotometer was adjusted at 30 °C and then, following the reaction time of 4 min, the absorbance values were noted after regular intervals. The experiment was repeated, and change in absorption with time was used to calculate the percentage activity of enzyme and enzyme inhibitor [59]. The p values, or calculated probability levels, are categorized as: 5% (p < 0.05), 1% (p < 0.01) and 0.1% (p < 0.001). p < 0.05 means statistically significant and p < 0.001 means highly statistically significant.

[2] = Hydrogen peroxide scavenging assay; details: for H2O2 free radical scavenging ability: mean ± S.E.M, n = 3
Experimental: In addition to DPPH the ligand acids and their complexes were also evaluated for their peroxide scavenging ability test. Hydrogen peroxide (H2O2) is a biologically important, non-radical reactive oxygen species (ROS) that can influence several cellular processes. It is a weak oxidizing agent and can inactivate a few enzymes directly, usually via oxidation of essential thiol (-SH) groups. It can cross cell membranes rapidly, and inside the cell, H2O2 probably reacts with Fe^2+ (and possibly Cu^2+) ions to form the hydroxyl radical, which may be the origin of many of its toxic effects. It is, therefore, biologically advantageous for cells to control the amount of hydrogen peroxide that is allowed to accumulate.
The ligand acids and their Cu(II) carboxylates were further subjected to H2O2 scavenging ability test potential by following the procedure as per cited literature. A 2 mM solution of H2O2 was made in 50 mM phosphate buffer having a pH 7.4. In the next step, 0.1 mL of the screened compounds was added to the 0.3 mL (50 mM) of phosphate buffer, then 0.6 mL of H2O2 was added and the solution was vortexed. After following the incubation period of 10 min, the absorption was 230 nm in comparison to the blank.

DPPH scavenging assay [3] = details: for DPPH Free Radical Scavenging Ability: mean ± S.E.M, n = 3
Source text: The antioxidant potential of the free acids and their Cu(II) carboxylates was explored via the DPPH method using ascorbic acid as a reference. The DPPH, with a single unpaired electron, is capable of accepting a hydrogen or electron and gives a strong absorption at 517 nm. The absorption generally decreases when it accepts a hydrogen or electron from an antioxidant, forming a stable molecule. The results given in Table 5 indicate that the compounds under study show a moderate level of antioxidant potential. This activity may be attributed to the various structural and electronic factors like coordination geometry, redox properties, chelate ring size, degree of unsaturation, etc.. The transfer of proton or electron from an antioxidant to DPPH results in the formation of species that undergo other reactions like coupling, fragmentation, and addition, which affect the rate and stoichiometry of the reaction.
The compounds under study were subjected to DPPH scavenging ability test as per cited literature. A 0.004% solution of reagent DPPH was added to the different concentrations of tested compounds (i.e., 125, 250, 500 and 1000 μg/mL) and the reaction mixture was incubated subsequently for about thirty minutes in dark. Ascorbic acid was used as positive control. The UV-3000 O.R.I. Germany was used to record the change in absorption of the reaction mixture at 517 nm and the percentage scavenging ability of the compounds under study was determined using formula: % scavenging activity =Absorbance of control−Absorbance of compounds /Absorbance of control×100
The experiments were repeated thrice. The GraphPad Prism® (version 4.0, Sandiego, CA, USA) was used to calculate the IC50 values.

[4] = target: butyrylcholinesterase (BChE) (Equus caballus, UniProt P81908); assay: biochemical; details: for inhibition of butyrylcholinesterase (% BChE activity): n = 3
Sequence of butyrylcholinesterase (BChE) (P81908 whole entry): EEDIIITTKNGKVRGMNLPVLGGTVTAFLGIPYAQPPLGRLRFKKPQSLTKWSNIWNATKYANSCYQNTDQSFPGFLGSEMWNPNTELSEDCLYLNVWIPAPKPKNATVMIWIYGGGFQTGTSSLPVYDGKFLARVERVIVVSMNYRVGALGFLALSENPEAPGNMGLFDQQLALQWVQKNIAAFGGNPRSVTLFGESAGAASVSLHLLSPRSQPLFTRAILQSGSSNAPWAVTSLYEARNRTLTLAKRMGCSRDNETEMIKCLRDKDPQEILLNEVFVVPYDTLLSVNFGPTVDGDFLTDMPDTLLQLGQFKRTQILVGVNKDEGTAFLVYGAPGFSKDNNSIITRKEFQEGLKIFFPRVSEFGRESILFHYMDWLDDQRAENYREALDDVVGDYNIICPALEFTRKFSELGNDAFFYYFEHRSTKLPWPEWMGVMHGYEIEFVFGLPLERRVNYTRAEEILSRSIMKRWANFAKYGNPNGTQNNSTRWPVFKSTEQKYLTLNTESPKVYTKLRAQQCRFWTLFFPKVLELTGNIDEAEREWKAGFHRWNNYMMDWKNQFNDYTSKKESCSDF
Experimental: as §1, §2, §3

DPPH scavenging assay [5] = details: Comp. Conc. 62.5 µg/mL; mean ± S.E.M, n = 3

Sequence of acetylcholinesterase (AChE) (O42275 24-633): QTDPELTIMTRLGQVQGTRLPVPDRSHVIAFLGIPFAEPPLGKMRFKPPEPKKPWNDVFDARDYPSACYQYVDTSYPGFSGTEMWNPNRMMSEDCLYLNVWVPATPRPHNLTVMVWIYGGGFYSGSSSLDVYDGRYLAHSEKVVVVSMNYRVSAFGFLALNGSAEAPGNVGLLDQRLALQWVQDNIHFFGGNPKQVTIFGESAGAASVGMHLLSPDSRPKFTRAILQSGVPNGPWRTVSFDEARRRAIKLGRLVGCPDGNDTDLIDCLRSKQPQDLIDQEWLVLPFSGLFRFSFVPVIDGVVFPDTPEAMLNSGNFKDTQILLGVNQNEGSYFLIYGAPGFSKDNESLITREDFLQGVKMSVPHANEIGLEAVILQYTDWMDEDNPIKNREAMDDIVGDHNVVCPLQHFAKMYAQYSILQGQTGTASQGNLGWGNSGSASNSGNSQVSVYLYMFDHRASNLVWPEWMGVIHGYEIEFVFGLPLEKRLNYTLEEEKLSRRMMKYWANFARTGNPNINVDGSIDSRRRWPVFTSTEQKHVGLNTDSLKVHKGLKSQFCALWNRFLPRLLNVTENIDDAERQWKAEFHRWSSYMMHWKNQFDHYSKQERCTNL

SMILES | Inhibition of Acetylcholinesterase (%AChE Activity) ([1]; Comp. Conc. 62.5 µg/mL) [%] | Inhibition of Acetylcholinesterase (%AChE Activity) ([1]; Comp. Conc. 125 µg/mL) [%] | Inhibition of Acetylcholinesterase (%AChE Activity) ([1]; Comp. Conc. 250 µg/mL) [%] | Inhibition of Acetylcholinesterase (%AChE Activity) ([1]; Comp. Conc. 500 µg/mL) | Inhibition of Acetylcholinesterase (%AChE Activity) ([1]; Comp. Conc. 1000 µg/mL) [%] | IC50, H2O2 free radical scavenging ability [2] [µg/mL] | H2O2 free radical scavenging ability ([2]; Comp. Conc. 62.5 µg/mL) [%] | H2O2 free radical scavenging ability ([2]; Comp. Conc. 125 µg/mL) [%] | H2O2 free radical scavenging ability ([2]; Comp. Conc. 250 µg/mL) [%] | H2O2 free radical scavenging ability ([2]; Comp. Conc. 500 µg/mL) [%] | H2O2 free radical scavenging ability ([2]; Comp. Conc. 1000 µg/mL) [%] | IC50, DPPH Free Radical Scavenging Ability (DPPH scavenging assay [3]) [µg/mL] | DPPH Free Radical Scavenging Ability (DPPH scavenging assay [3]; Comp. Conc. 125 µg/mL) [%] | DPPH Free Radical Scavenging Ability (DPPH scavenging assay [3]; Comp. Conc. 250 µg/mL) [%] | DPPH Free Radical Scavenging Ability (DPPH scavenging assay [3]; Comp. Conc. 500 µg/mL) [%] | DPPH Free Radical Scavenging Ability (DPPH scavenging assay [3]; Comp. Conc. 1000 µg/mL) [%] | IC50, inhibition of butyrylcholinesterase [4] [µg/mL] | inhibition of butyrylcholinesterase (% BChE activity) ([4]; Comp. Conc. 62.5 µg/mL) [%] | inhibition of butyrylcholinesterase (% BChE activity) ([4]; Comp. Conc. 125 µg/mL) [%] | inhibition of butyrylcholinesterase (% BChE activity) ([4]; Comp. Conc. 250 µg/mL) [%] | also measured
N#Cc1ccncc1.N#Cc1ccncc1.O=C([O-])Cc1cccc(Cl)c1.O=C([O-])Cc1cccc(Cl)c1.O=C([O-])Cc1cccc(Cl)c1.O=C([O-])Cc1cccc(Cl)c1.[Cu+2].[Cu+2] [Complex 5, Cu2(3-ClC6H4COO)4(4-CNPy)2] | 69.91 ± 1.30 | 71.76 ± 0.61 | 76.87 ± 1.27 | 82.13 ± 0.20 ^⸸ % | 89.20 ± 0.23 | 27.35 | 59.81 ± 0.65 | 66.65 ± 0.78 | 75.70 ± 0.62 | 80.76 ± 0.63 | 84.83 ± 0.62 | 20.29 | 64.78 ± 0.60 | 71.46 ± 0.53 | 77.68 ± 0.63 | 85.72 ± 0.79 | 04 | 72.74 ± 0.61 | 76.54 ± 0.50 | 81.48 ± 0.64 | IC50, Inhibition of Acetylcholinesterase [1]: 5 µg/mL; inhibition of butyrylcholinesterase (% BChE activity) ([4]; Comp. Conc. 500 µg/mL): 86.86 ± 0.60 %; inhibition of butyrylcholinesterase (% BChE activity) ([4]; Comp. Conc. 1000 µg/mL): 91.62 ± 0.74 %; DPPH Free Radical Scavenging Ability (DPPH scavenging assay [5]): 55.56 ± 0.52 %
O=C([O-])Cc1cccc(Cl)c1.O=C([O-])Cc1cccc(Cl)c1.O=C([O-])Cc1cccc(Cl)c1.O=C([O-])Cc1cccc(Cl)c1.Oc1ccncc1.Oc1ccncc1.[Cu+2].[Cu+2] [Complex 6, Cu2(3-ClC6H4COO)4(4-OHPy)2] | 58.74 ± 0.68 | 62.70 ± 1.25 | 67.05 ± 0.75 | 72.32 ± 1.06 % | 77.34 ± 0.98 | 10.65 | 61.35 ± 0.18 | 66.20 ± 0.15 | 73.42 ± 0.11 | 78.62 ± 0.17 | 83.53 ± 0.20 | 14.51 | 63.47 ± 0.49 | 68.75 ± 0.14 | 75.59 ± 0.30 | 80.85 ± 0.18 | 42 | 57.00 ± 1.15 | 61.67 ± 0.89 | 65.00 ± 0.58 | inhibition of butyrylcholinesterase (% BChE activity) ([4]; Comp. Conc. 500 µg/mL): 72.03 ± 0.23 %; inhibition of butyrylcholinesterase (% BChE activity) ([4]; Comp. Conc. 1000 µg/mL): 75.33 ± 0.49 %; DPPH Free Radical Scavenging Ability (DPPH scavenging assay [5]): 58.12 ± 0.34 %
